From paper PMC12516812 (RSC Advances, 2025) come the findings set out here.

The test system of this test is MCF-7, U87, PANC-1 and A549. Kind of test: MTT cytotoxicity assay, average over all tested cancer cell lines. The test is classed as cell-based. The following applies: Homo sapiens, 72 h, read-out: average IC50 against all tested cell lines.

Turning to `CC1=CC(=O)C(C(C)C)=CC1=O` [TQ, Thymoquinone], the IC50 is around 32 µM.
